Results reported in PMC9406419, “OATD-02 Validates the Benefits of Pharmacological Inhibition of Arginase 1 and 2 in Cancer” (Cancers, 2022).

Columns and labels:
recombinant human ARG2 = target: T1, recombinant human ARG2 (Homo sapiens, UniProt P78540); assay: Recombinant arginase inhibition assay (colorimetric urea detection), ARG2; type: biochemical; settings: recombinant human ARG2, 20 mM L-arginine, 37 °C, 1 h, pH 7.4
T1 construct: made in house; host or cells: E. coli
T1 sequence (P78540 23-354): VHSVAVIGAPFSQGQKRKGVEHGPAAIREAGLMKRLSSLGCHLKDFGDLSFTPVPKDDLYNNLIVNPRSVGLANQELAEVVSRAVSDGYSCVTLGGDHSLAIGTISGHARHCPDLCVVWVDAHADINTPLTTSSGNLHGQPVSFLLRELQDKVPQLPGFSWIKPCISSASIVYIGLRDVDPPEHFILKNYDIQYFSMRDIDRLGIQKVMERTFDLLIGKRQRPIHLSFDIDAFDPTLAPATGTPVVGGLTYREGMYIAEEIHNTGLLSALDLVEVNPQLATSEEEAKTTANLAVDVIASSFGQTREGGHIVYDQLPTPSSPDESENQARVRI
Protocol: Recombinant enzymes (ARG1 or ARG2) were produced at Molecure SA—biosynthesized in E. coli expression system, purified by fast protein liquid chromatography, and stored at −80 °C in the storage buffer (20 mM Tris pH 8.0, 100 mM NaCl, 10 mM DDT, 10% glycerol). The enzymatic reaction was carried out at 37 °C for 1 h in the assay buffer (100 mM sodium phosphate buffer, 130 mM NaCl, pH 7.4) with the addition of 1 mg/mL BSA in the presence of 200 µM MnCl2 (enzyme cofactor), 10 mM (for ARG1) or 20 mM (for ARG2) of L-arginine hydrochloride (enzyme substrate), and serial dilutions of the test compounds. The inhibition of the arginase activity was determined by colorimetric detection of produced urea, as previously described with minor changes. Briefly, 150 µL of freshly prepared developing reagent (2 mM o-phthaldialdehyde (OPA), 2 mM N-(1-naphthyl)ethylenediamine dihydrochloride (NED), 50 mM boric acid, 1 M sulfuric acid, 0.03% Brij-35) was added to each well, incubated for 20 min at RT, then the absorbance at 515 nm was measured. Normalized values were fitted to a four-parameter equation using GraphPad Prism and IC50 values were determined. […]

K562 tumours = assay: K562 xenograft model in athymic nude mice; type: in vivo, mouse
Protocol: CT26 and K562 in vivo experiments were conducted at Molecure SA. All experimental procedures were approved by the 1st Local Ethics Committee in Warsaw (Poland). For the syngeneic CT26 model, 7–8-week old BALB/c females (n = 9–18 per group, BALB/cAnNCrl, Charles River Laboratories) were injected subcutaneously in the right flank with 5 × 10^5 CT26 cells. […] Anti-PD-L1 antibody (InVivoPlus anti-mouse PD-L1, clone 10F.9G2, BioXCell, lot 615416D1) was injected intraperitoneally at 2.5 mg/kg on days: 8, 10, 12, 14 and 16 post tumour cells inoculation. Control groups received vehicle (saline) or isotype antibody (InVivoPlus rat IgG2b, anti-KLH, BioXCell, lot 629816D1). For the xenograft K562 model, 7–8 week-old athymic nude mice (n = 8–11 per group, Crl:NU(NCr)-Foxn1^nu, Charles River Laboratories) or NK cell-deficient Fox Chase SCID Beige mice (n = 10–12 per group, CB17.Cg-Prkdc^scidLyst^bg-J/Crl, Charles River Laboratories) were injected subcutaneously in the right flank with 1 × 10^7 K562 cells. […] Tumour volume measured by a digital calliper (width × length × depth × π/6) was recorded three times per week. Animals were euthanized when tumours were necrotized or volume exceeded 2000 mm^3. Renca in vivo efficacy study was performed at Crown Biosciences Inc. (Taicang, China). […] Tumour volumes (length × width^2 × 0.5) were measured twice per week. […]

CT26 tumours = assay: Syngeneic CT26 colorectal carcinoma model, monotherapy, with plasma/tumour bioanalytics; type: in vivo, mouse; settings: for final TGI (tumour growth inhibition): CT26 in BALB/c mice, 100 mg/kg, PO, BID from day 1 post-inoculation
Protocol: CT26 and K562 in vivo experiments were conducted at Molecure SA. All experimental procedures were approved by the 1st Local Ethics Committee in Warsaw (Poland). For the syngeneic CT26 model, 7–8-week old BALB/c females (n = 9–18 per group, BALB/cAnNCrl, Charles River Laboratories) were injected subcutaneously in the right flank with 5 × 10^5 CT26 cells. […] Anti-PD-L1 antibody (InVivoPlus anti-mouse PD-L1, clone 10F.9G2, BioXCell, lot 615416D1) was injected intraperitoneally at 2.5 mg/kg on days: 8, 10, 12, 14 and 16 post tumour cells inoculation. Control groups received vehicle (saline) or isotype antibody (InVivoPlus rat IgG2b, anti-KLH, BioXCell, lot 629816D1). For the xenograft K562 model, 7–8 week-old athymic nude mice (n = 8–11 per group, Crl:NU(NCr)-Foxn1^nu, Charles River Laboratories) or NK cell-deficient Fox Chase SCID Beige mice (n = 10–12 per group, CB17.Cg-Prkdc^scidLyst^bg-J/Crl, Charles River Laboratories) were injected subcutaneously in the right flank with 1 × 10^7 K562 cells. […] Tumour volume measured by a digital calliper (width × length × depth × π/6) was recorded three times per week. Animals were euthanized when tumours were necrotized or volume exceeded 2000 mm^3. Renca in vivo efficacy study was performed at Crown Biosciences Inc. (Taicang, China). All experimental procedures on animals were approved by the Institutional Animal Care and Use Committee (IACUC) and conducted in accordance with the regulations of the Association for Assessment and Accreditation of Laboratory Animal Care (AAALAC). For the syngeneic Renca model, 6–7 week-old BALB/c females (n = 12 per group, Shanghai Lingchang Biotechnology, Shanghai, China) were injected subcutaneously in the right flank with 1 × 10^6 Renca cells. Tumour volumes (length × width^2 × 0.5) were measured twice per week. OATD-02 was dosed twice per day at 75 mg/kg by oral gavage. A dosing holiday was given to individuals with bodyweight loss exceeding 15% of the initial body weight and the treatment was resumed when the bodyweight loss recovered to less than 10%. Due to the cachexic nature of the Renca model, all animals were supplemented with DietGel to help maintain their body weight.
The concentrations of OATD-02, the reference ARGi or L-arginine were determined in plasma samples or tumour homogenates using liquid chromatography coupled with tandem mass spectrometry (LC-MS/MS). Sample preparation was based on protein precipitation using acetonitrile. The resulting supernatants were analysed using hydrophilic interaction liquid chromatography (HILIC) with subsequent MS detection based on optimised MRM transitions. Matrix-matched calibration and quality control samples were prepared for quantification of OATD-02 and the reference ARGi. Due to the endogenous character of L-arginine, a surrogate matrix was used for its detection.
All statistical analyses were performed using GraphPad Prism (ver. 9, GraphPad Software, Inc., San Diego, CA, USA). Data sets with normal distribution were described as means with SEM (standard error of the mean). Otherwise, the median value was shown and the U Mann–Whitney or the Kruskal–Wallis tests were applied for intergroup comparisons. Differences at p-value less than 0.05 were considered statistically significant. TGI (tumour growth inhibition) index was calculated by the formula: (1 − A/B) × 100%, where A is the tumour volume in the treated group and B is the volume in the control group. […]

SMILES | IC50 (recombinant human ARG2) [nM] | final TGI, K562 tumor volumes, athymic nude mice (K562 tumours; 50 mg/kg PO BID from day 6, day 19 post-inoculation) [%] | fold change of endogenous plasma L-arginine (CT26 tumours; CT26-bearing mice, 100 mg/kg PO BID, 6 h after the last dosing) | final TGI (tumour growth inhibition) (CT26 tumours) [%] | fold change of L-arginine in tumour homogenates (CT26 tumours; CT26 tumours, 100 mg/kg PO BID, within the first 6 h post-dosing) | final TGI, K562 tumor volumes, athymic nude mice (K562 tumours; 100 mg/kg PO BID (Figure 5 legend) from day 6, day 19 post-inoculation) [%] | oral bioavailability (plasma concentrations, compared between the two inhibitors) (CT26 tumours; CT26-bearing mice, 100 mg/kg PO BID, Figure 2B)
CN(C)C[C@@H]1CC[C@@H](CCB(O)O)C[C@]1(N)C(=O)O [OATD-02] | 34 | 49 | up to 6.7 fold | 48 | up to 6.9 fold | – | –
C[C@H](N)C(=O)N1C[C@H](CCCB(O)O)[C@](N)(C(=O)O)C1 [ref. ARGi, numidargistat, reference compound] | 335 | – | – | 28 | – | 14 | higher oral bioavailability
